# Reference: ChEMBL document CHEMBL1201862, “PubChem BioAssay data set” (2004)
#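 Protocol summary: plate cells (96-well), add compound at 5 concentrations, incubate 48 h, interpolate endpoints linearly. GI50 is the concentration that inhibits growth by half.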 Active and inactive are the calls of the source. Cut-off read from the data, not from the text of the source: active = GI50 up to about 1.1 µM and inactive = higher.
# What was measured:
# Assay in all cases: inhibition of tumour cell growth, NCI panel, 48 h
# [1] = system: M14
# [2] = system: TK-10
# [3] = system: HT-29
# [4] = system: SK-MEL-5
# [5] = system: OVCAR-8
# [6] = system: SK-OV-3
# [7] = system: K562
# [8] = system: NCI-H226
# [9] = system: HL-60
# [10] = system: HCT-15
# [11] = system: SW-620
# [12] = system: UACC-257
# [13] = system: SN12C
# [14] = system: KM12
# [15] = system: SF-268
# [16] = system: U-251
# [17] = system: HOP-92
# [18] = system: LOX IMVI
SMILES,GI50 [1],GI50 [2],GI50 [3],GI50 [4],GI50 [5],GI50 [6],GI50 [7],GI50 [8],GI50 [9],GI50 [10] [µM],GI50 [11],GI50 [12],GI50 [13],GI50 [14],GI50 [15],GI50 [16],GI50 [17],GI50 [18]
C[S+](C)CCOC(=O)C(=[N+]=[N-])c1ccc([N+](=O)[O-])cc1,> 100 µM (inactive),> 100 µM (inactive),> 100 µM (inactive),> 100 µM (inactive),> 100 µM (inactive),> 100 µM (inactive),> 100 µM (inactive),> 100 µM (inactive),> 100 µM (inactive),> 100,> 100 µM (inactive),> 100 µM (inactive),> 100 µM (inactive),> 100 µM (inactive),> 100 µM (inactive),> 100 µM (inactive),–,–
Cc1ccccc1-c1c(N)nc(NC#N)nc1C(=O)Nc1ccccc1,> 100 µM (inactive),> 100 µM (inactive),> 100 µM (inactive),> 100 µM (inactive),–,> 100 µM (inactive),> 100 µM (inactive),> 100 µM (inactive),–,> 100,> 100 µM (inactive),> 100 µM (inactive),99.8 µM (inactive),> 100 µM (inactive),> 100 µM (inactive),> 100 µM (inactive),42.9 µM (inactive),> 100 µM (inactive)
CCOC(=O)c1nc2ccc(Cl)cc2c2c1CCO2,> 100 µM (inactive),76.7 µM (inactive),> 100 µM (inactive),55.6 µM (inactive),> 100 µM (inactive),76 µM (inactive),91.2 µM (inactive),> 100 µM (inactive),18.2 µM (inactive),99.1,> 100 µM (inactive),> 100 µM (inactive),82 µM (inactive),> 100 µM (inactive),90.8 µM (inactive),74.6 µM (inactive),–,59.6 µM (inactive)
CC(C)C1CCC/C=C/C=C/C=C/C=C/C(OC2OC(C)C(O)C(N)C2O)CC2OC(O)(CC(O)CC(O)C(O)CCC(=O)O1)CC(O)C2C(=O)O (centres undefined),> 52.5 µM (inactive),–,> 52.5 µM (inactive),> 52.5 µM (inactive),> 52.5 µM (inactive),> 52.5 µM (inactive),> 52.5 µM (inactive),–,> 52.5 µM (inactive),> 52.5,> 52.5 µM (inactive),–,> 52.5 µM (inactive),–,> 52.5 µM (inactive),> 52.5 µM (inactive),> 52.5 µM (inactive),–
O=C(O)c1ccccc1/N=N/c1ccc2oc(=O)c(C(=O)Nc3ccccc3)cc2c1,47.9 µM (inactive),61.5 µM (inactive),38.4 µM (inactive),28.4 µM (inactive),38.1 µM (inactive),52.8 µM (inactive),39.6 µM (inactive),25.7 µM (inactive),24.4 µM (inactive),32.7,49.7 µM (inactive),24.6 µM (inactive),45.1 µM (inactive),31.8 µM (inactive),–,42.4 µM (inactive),–,35.9 µM (inactive)
CCCN(CCCN)/[N+]([O-])=N\O,> 100 µM (inactive),–,> 100 µM (inactive),> 100 µM (inactive),> 100 µM (inactive),> 100 µM (inactive),> 100 µM (inactive),> 100 µM (inactive),> 100 µM (inactive),> 100,> 100 µM (inactive),> 100 µM (inactive),> 100 µM (inactive),> 100 µM (inactive),> 100 µM (inactive),> 100 µM (inactive),> 100 µM (inactive),–
Cc1c2n(c(=O)[nH]c1=O)C1OC(CO)C(O2)C1O (centres undefined),–,> 100 µM (inactive),> 100 µM (inactive),> 100 µM (inactive),> 100 µM (inactive),> 100 µM (inactive),> 100 µM (inactive),> 100 µM (inactive),> 100 µM (inactive),> 100,> 100 µM (inactive),> 100 µM (inactive),> 100 µM (inactive),> 100 µM (inactive),> 100 µM (inactive),> 100 µM (inactive),> 100 µM (inactive),> 100 µM (inactive)
CC1=C(C(=O)Nc2cccc(C(F)(F)F)c2)C(c2ccc(O)cc2)C(C(=O)Nc2cccc(C(F)(F)F)c2)=C(C)N1,14.9 µM (inactive),26.1 µM (inactive),16 µM (inactive),16.9 µM (inactive),23.2 µM (inactive),19.1 µM (inactive),15 µM (inactive),17.3 µM (inactive),15.1 µM (inactive),–,19.4 µM (inactive),17.7 µM (inactive),> 10 µM (inactive),15.8 µM (inactive),26.5 µM (inactive),17.1 µM (inactive),11.5 µM (inactive),15.6 µM (inactive)
CCc1c(Cc2[nH]c(Cc3[nH]c(C=O)c(C)c3CC)c(CC)c2CC)[nH]c(C=O)c1C,> 100 µM (inactive),> 100 µM (inactive),> 100 µM (inactive),> 100 µM (inactive),> 100 µM (inactive),> 100 µM (inactive),> 100 µM (inactive),> 100 µM (inactive),> 100 µM (inactive),> 100,> 100 µM (inactive),–,> 100 µM (inactive),> 10 µM (inactive),> 100 µM (inactive),> 100 µM (inactive),–,> 100 µM (inactive)
CCN(N=O)C1C2(CCCC2)NC(=O)C12CCCC2 (centres undefined),> 100 µM (inactive),> 100 µM (inactive),> 100 µM (inactive),–,> 100 µM (inactive),> 100 µM (inactive),> 100 µM (inactive),> 100 µM (inactive),> 100 µM (inactive),> 100,> 100 µM (inactive),> 100 µM (inactive),> 100 µM (inactive),> 100 µM (inactive),> 100 µM (inactive),> 100 µM (inactive),–,> 100 µM (inactive)
Nc1cc(O)nc(SC2=NC(N)CC(O)C2)n1 (centres undefined),> 100 µM (inactive),> 100 µM (inactive),> 100 µM (inactive),> 100 µM (inactive),> 100 µM (inactive),> 100 µM (inactive),> 100 µM (inactive),> 100 µM (inactive),–,> 100,42.5 µM (inactive),> 100 µM (inactive),> 100 µM (inactive),> 100 µM (inactive),–,> 100 µM (inactive),> 100 µM (inactive),> 100 µM (inactive)
CC(=O)C1C(=O)N(C(C)C)C[C@@H]2CCC(=O)C[C@H]12 (some centres undefined),> 100 µM (inactive),> 100 µM (inactive),> 100 µM (inactive),> 100 µM (inactive),> 100 µM (inactive),> 100 µM (inactive),> 100 µM (inactive),–,> 100 µM (inactive),> 100,> 100 µM (inactive),> 100 µM (inactive),> 100 µM (inactive),> 100 µM (inactive),> 100 µM (inactive),> 100 µM (inactive),> 100 µM (inactive),> 100 µM (inactive)
O=c1[nH]nc2ccccc2c1Cc1ccccc1,> 100 µM (inactive),> 100 µM (inactive),> 100 µM (inactive),> 100 µM (inactive),> 100 µM (inactive),> 100 µM (inactive),> 100 µM (inactive),> 100 µM (inactive),–,> 100,> 100 µM (inactive),> 100 µM (inactive),> 100 µM (inactive),> 100 µM (inactive),> 100 µM (inactive),> 100 µM (inactive),> 100 µM (inactive),> 100 µM (inactive)
COC1(OC)C(N(C)C)=C(Cl)C(=O)/C1=C/C=O,> 100 µM (inactive),> 100 µM (inactive),> 100 µM (inactive),> 100 µM (inactive),> 100 µM (inactive),> 100 µM (inactive),33.1 µM (inactive),> 100 µM (inactive),77.4 µM (inactive),98.9,97.1 µM (inactive),83.8 µM (inactive),> 100 µM (inactive),–,> 100 µM (inactive),> 100 µM (inactive),47 µM (inactive),84.7 µM (inactive)
COc1cc(O)c2c(c1)C(=O)C1=C(C2=O)C(O)C[C@@](C)(O)C1 (some centres undefined),0.871 µM (active),1.98 µM (inactive),0.475 µM (active),–,1.16 µM (inactive),5.9 µM (inactive),0.457 µM (active),5.82 µM (inactive),0.451 µM (active),0.358,0.441 µM (active),0.335 µM (active),1.29 µM (inactive),2.47 µM (inactive),2.01 µM (inactive),2.49 µM (inactive),1.1 µM (active),0.424 µM (active)
C=CNC(=O)NC(=O)CSc1nc(=O)c(-c2ccccc2NC(=O)C(F)(F)F)n[nH]1,23.4 µM (inactive),68.9 µM (inactive),> 100 µM (inactive),0.569 µM (active),> 100 µM (inactive),47.6 µM (inactive),> 100 µM (inactive),10.7 µM (inactive),–,> 100,> 100 µM (inactive),–,> 100 µM (inactive),> 100 µM (inactive),37.4 µM (inactive),23.7 µM (inactive),21.6 µM (inactive),> 100 µM (inactive)
Cc1c(C(=O)/C=C/c2c(Cl)cccc2Cl)c(=O)n(-c2ccccc2)n1C,–,54.7 µM (inactive),18 µM (inactive),–,16.7 µM (inactive),43 µM (inactive),–,21.3 µM (inactive),–,19.5,7 µM (inactive),20.9 µM (inactive),24.4 µM (inactive),15.9 µM (inactive),24.1 µM (inactive),0.0147 µM (active),17.6 µM (inactive),11.8 µM (inactive)
